{
  "source": "paper PMC8475189",
  "about": "“The CopA2-Type P1B-Type ATPase CcoI Serves as Central Hub for cbb3-Type Cytochrome Oxidase Biogenesis” (Frontiers in Microbiology, 2021)",
  "biological_target": "T1, CcoI (Rhodobacter capsulatus, UniProt D5ARQ0)",
  "T1 construct": "full-length with C-terminal Myc-His tag (pBAD-ccoI-Myc/HisA), expressed in E. coli C43(DE3), purified in DDM, monomeric SEC peak; strain MT1131 is printed as wild type and as genomic template of the ccoI-senC fusion",
  "T1 sequence (D5ARQ0 1-742)": "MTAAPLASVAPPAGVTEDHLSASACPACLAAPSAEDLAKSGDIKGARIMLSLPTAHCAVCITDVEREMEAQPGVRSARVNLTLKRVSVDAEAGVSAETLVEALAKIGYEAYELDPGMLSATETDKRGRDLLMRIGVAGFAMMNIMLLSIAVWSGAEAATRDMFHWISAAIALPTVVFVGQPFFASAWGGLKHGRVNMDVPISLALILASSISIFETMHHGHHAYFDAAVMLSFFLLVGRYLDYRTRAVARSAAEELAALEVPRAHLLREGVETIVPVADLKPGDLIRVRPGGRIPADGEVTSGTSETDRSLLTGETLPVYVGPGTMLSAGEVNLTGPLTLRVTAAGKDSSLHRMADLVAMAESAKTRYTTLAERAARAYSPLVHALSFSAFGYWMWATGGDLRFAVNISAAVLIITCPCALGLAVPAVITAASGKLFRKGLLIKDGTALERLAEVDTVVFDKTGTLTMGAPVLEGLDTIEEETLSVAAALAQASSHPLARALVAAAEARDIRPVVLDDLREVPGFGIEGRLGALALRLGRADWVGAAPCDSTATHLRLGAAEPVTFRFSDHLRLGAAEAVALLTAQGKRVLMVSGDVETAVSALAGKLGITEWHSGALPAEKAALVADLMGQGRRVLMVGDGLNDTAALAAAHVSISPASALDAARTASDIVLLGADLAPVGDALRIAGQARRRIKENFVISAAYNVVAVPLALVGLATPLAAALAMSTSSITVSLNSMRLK",
  "assay": "[…] phosphate release (charcoal, scintillation)",
  "format": "biochemical",
  "conditions": "labelled compound; 10-100 µM ATP, 10 mM MgCl2, 50 mM Tris pH 7.5, 300 mM NaCl, 0.03% DDM, 35 °C; no added Cu",
  "data": [
    {"smiles": "Nc1ncnc2c1ncn2[C@@H]1O[C@H](COP(=O)(O)OP(=O)(O)OP(=O)(O)O)[C@@H](O)[C@H]1O", "note": "[ATP]", "values": [
      {"measurement": "33P phosphate release (charcoal, scintillation)", "result": "ATPase activity of detergent-solubilized, purified CcoI"}
    ]}
  ]
}
